Source: patent US20230247992A1, “ARTHROPOD CONTROL COMPOSITION” (Firmenich SA, priority 2020, published 2023)

Columns and labels:
Aedes aegypti [1] = experiment: in vitro Warm Body assay, substance introduced in the cage air by forced evaporation (spatial repellence); assay type: in vivo
Experimental: (§1) The controlling effect, repellence & spatial repellence, according to the present invention is determined by testing the Warm Body assay against the yellow fever mosquito, Aedes aegypti Rockefeller strain. […] Observations of controlling efficacy were made on host-seeking females of uniform age, 5 to 10 days old selected as mentioned in the publication mentioned hereinabove. Tested hungry females had access to 10% sugar solution but were not blood-fed. Further information is provided in the accompanying examples.
(§2) The published protocol has been adapted in not manually counting the landing mosquitoes but automatically using an automatic counting software, the switch from Anopheles gambiae to A. aegypti led to a decrease of mosquitoes’ number placed in the tested cage due to the size difference (i.e. 30 mosquitoes instead of 50) and to an increase of lighting as A. aegypti is a diurnal mosquitoes (i.e. 150 lux instead of 4 lux). Further information is provided in the accompanying examples.,
(§3) The controlling effect of the compositions according to the present invention was assessed using an adapted Warm Body assay as defined in Kröber T, Kessler S, Frei J, Bourquin M, Guerin PM. 2010. An in vitro assay for testing mosquito controlling compounds employing a warm body and carbon dioxide as a behavioral activator. J Am Mosq Control Assoc. 26:381-386. In this in-vitro assay the number of mosquito landing on a warm body, simulating an attractive host treated with the tested stimuli, was measured in order to assess the repellence effect.
as §2, with “to Aedes” for “to A.”, “lux).” for “lux). Further information is provided in the accompanying examples.,”
(§4) In addition, since the inventors were interested by assessing spatial repellence added or not to a deterrent effect, the substance was applied using two different technics. Whether, as in Kröber et al. (2010), both deterrent and repellent effect were investigated (i.e. similar effect than most body care applications such as lotion) and the substances was applied on a sandblasted glass Petri dish placed on top of the warm body. Whether only the spatial repellence was investigated (i.e. similar effect than most home care applications such as liquid electric dispenser) and the substance was introduced in the cage space thanks to a forced evaporation system as described in Chappuis C J-F, Niclass Y, Vuilleumier C, Starkenmann C. 2015. Quantitative Headspace Analysis of Selected Odorants from Latrines in Africa and India. Environ. Sci. Technol. 49:6134-6140.
(§5) As stated in Kröber et al. (2010), selected 10-12 days old hungry females, that had ad libitum access to 10% sugar solution but were not blood-fed, were selected for the assay.
The forced evaporation system allows to fill the volume of the cage with stimuli tested, (2-methyl-4-oxo-3-prop-2-ynylcyclopent-2-en-1-yl) 2,2-dimethyl-3-(2-methylprop-1-enyl)cyclopropane-1-carboxylate (prallethrin) and N,N-diethyl-3-methylbenzamide (DEET) being used as benchmarks. In order to limit potential dead volumes in the cage, five flushes of the cage were made before starting the 2 minutes test during which the number of mosquito landings was counted.

Ixodes ricinus = experiment: whole plant or invertebrate; assay type: in vivo; details: for pest or weed control at 1 µg/cm2, 1 µg/cm2 / pest or weed control at 5 µg/cm2, 5 µg/cm2 / pest or weed control at 25 µg/cm2, 25 µg/cm2: Ixodes ricinus, read-out: mean percentage of ticks affected
Aedes aegypti [2] = experiment: in vivo Arm-in-cage assay on human volunteers; details: for decrease of the percentage of mosquito landing on the arm: 20% applied on arm skin (600 cm^2), three volunteers
Experimental: The controlling effect, repellence & spatial repellence, according to the present invention is also determined according to an arm in the box method adapted from the WHO Guidelines for efficacy testing of mosquito repellents for human skin (WHO/CDS/NTD/WHOPES/2009.4). […] Further information is provided in the accompanying examples.
The Arm in the box method was adapted from the WHO Guidelines for efficacy testing of mosquito repellents for human skin (WHO/CDS/NTD/WHOPES/2009.4). The readiness of 100 hungry female mosquitoes A. aegypti to probe is assessed by inserting an untreated arm into the cage (40×40×40 cm) for 30 seconds (negative control) three times (once at the beginning, once at the fourth hour and once at the eighth hour), to determine probing activity. Then, the product is applied onto the skin of the forearm of a human volunteer (1 mL per 600 cm^2) and after 5 minutes, this arm is inserted into the cage and exposed for 3 minutes. The assay take place in temperature (27±2° C.) and humidity (80±10%RH) regulated room on three different volunteers.
Arm-in-cage test is a compulsory assay for most biocide registrations to assess the efficacy of a substance. It is a very challenging test as the treated arm of a volunteer is being placed in a space containing a density of […] blood hungry mosquitoes / m^3 of air.

Aedes aegypti [3] = experiment: in vitro Warm Body assay, substance applied on glass Petri dish on top of the warm body (deterrence and repellence); assay type: in vivo
Experimental: as §1, §2, §3
as §2, with “to Aedes” for “to A.”, “lux).” for “lux). Further information is provided in the accompanying examples.,”
as §4, §5
On the sandblasted glass Petri dish covering the warm body (28.3 cm^2), 100 µL of the substances diluted at different concentrations in ethanol was applied. The number of mosquito landing on the warm body was counted for each stimuli, N,N-diethyl-3-methylbenzamide (DEET) and ethyl 3-[acetyl(butyl)amino]propanoate (IR3535) being used as benchmarks and pure ethanol as control.

[4] = 0.0017 µg/L air, without substance 54.7±3.2
[5] = 0.017 µg/L air, without substance 54.7±3.2
[6] = 0.17 µg/L air, without substance 54.7±3.2
[7] = 1.7 µg/L air, without substance 54.7±3.2
[8] = 17 µg/L air, without substance 54.7±3.2
[9] = 0.04% in ethanol, ethanol control 59.3±6.9 landings
[10] = 1% in ethanol, ethanol control 59.3±6.9 landings
[11] = […] in ethanol, ethanol control 59.3±6.9 landings

SMILES	number of mosquitoes landing within 2 minutes on the warm body, air in the cage saturated with stimulus (Aedes aegypti [1]; [4])	number of mosquitoes landing within 2 minutes on the warm body, air in the cage saturated with stimulus (Aedes aegypti [1]; [5])	number of mosquitoes landing within 2 minutes on the warm body, air in the cage saturated with stimulus (Aedes aegypti [1]; [6])	number of mosquitoes landing within 2 minutes on the warm body, air in the cage saturated with stimulus (Aedes aegypti [1]; [7])	number of mosquitoes landing within 2 minutes on the warm body, air in the cage saturated with stimulus (Aedes aegypti [1]; [8])	pest or weed control at 1 µg/cm2, 1 µg/cm2 (Ixodes ricinus)	pest or weed control at 5 µg/cm2, 5 µg/cm2 (Ixodes ricinus)	pest or weed control at 25 µg/cm2, 25 µg/cm2 (Ixodes ricinus)	number of mosquitoes landing within 2 minutes on the warm body (Aedes aegypti [3]; [9])	number of mosquitoes landing within 2 minutes on the warm body (Aedes aegypti [3]; [10])	number of mosquitoes landing within 2 minutes on the warm body (Aedes aegypti [3]; [11])	other results
COc1cc(C=O)ccc1O [4-hydroxy-3-methoxybenzaldehyde]	17.0	9.0	1.5	3.5	1.0	14%	44%	73%	9.0	3.0	19.0	decrease of the percentage of mosquito landing on the arm (Aedes aegypti [2]; 5 min post-application): 82±5.2%; decrease of the percentage of mosquito landing on the arm (Aedes aegypti [2]; 1 h post-application): 78±2.6%; decrease of the percentage of mosquito landing on the arm (Aedes aegypti [2]; 2 h post-application): 66±8.0%; decrease of the percentage of mosquito landing on the arm (Aedes aegypti [2]; 3 h post-application): 61±6%; decrease of the percentage of mosquito landing on the arm (Aedes aegypti [2]; 4 h post-application): 63±2%
CCCCCC1CCCC(=O)O1 (stereo not shown) [6-pentyloxan-2-one]	–	–	–	–	–	–	–	–	–	–	–	number of mosquitoes landing within 2 minutes on the warm body, air in the cage saturated with stimulus (Aedes aegypti [1]; 0.0017 µg/L air, without substance 54.1±4.9): 43.0; number of mosquitoes landing within 2 minutes on the warm body, air in the cage saturated with stimulus (Aedes aegypti [1]; 0.017 µg/L air, without substance 54.1±4.9): 4.0; number of mosquitoes landing within 2 minutes on the warm body, air in the cage saturated with stimulus (Aedes aegypti [1]; 0.17 µg/L air, without substance 54.1±4.9): 28.0; number of mosquitoes landing within 2 minutes on the warm body, air in the cage saturated with stimulus (Aedes aegypti [1]; 1.7 µg/L air, without substance 54.1±4.9): 0.5; number of mosquitoes landing within 2 minutes on the warm body, air in the cage saturated with stimulus (Aedes aegypti [1]; 17 µg/L air, without substance 54.1±4.9): 0.0; repellence in the arm-in-cage test (Aedes aegypti [2]; maintained for more than 4h (FIG. 3)): above 75%; number of mosquitoes landing within 2 minutes on the warm body (Aedes aegypti [3]; 0.04% in ethanol, ethanol control 67.0±8.8 landings): 7.0; number of mosquitoes landing within 2 minutes on the warm body (Aedes aegypti [3]; 1% in ethanol, ethanol control 67.0±8.8 landings): 2.0; number of mosquitoes landing within 2 minutes on the warm body (Aedes aegypti [3]; […] in ethanol, ethanol control 67.0±8.8 landings): 90.0
C=C(C)[C@@H]1CC=C(C)C(=O)C1 [(5R)-2-methyl-5-prop-1-en-2-ylcyclohex-2-en-1-one]	20.0	27.0	2.0	2.0	2.0	50%	17%	57%	16.0	3.0	24.0	–
C/C=C/C(=O)C1C(C)=CCCC1(C)C (stereo not shown) [(E)-1-(2,6,6-trimethylcyclohex-2-en-1-yl)but-2-en-1-one]	–	–	–	–	–	13%	6%	83%	–	–	–	number of mosquitoes landing within 2 minutes on the warm body, air in the cage saturated with stimulus (Aedes aegypti [1]; 0.0017 µg/L air, without substance 56.0±3.6): 6.0; number of mosquitoes landing within 2 minutes on the warm body, air in the cage saturated with stimulus (Aedes aegypti [1]; 0.017 µg/L air, without substance 56.0±3.6): 11.0; number of mosquitoes landing within 2 minutes on the warm body, air in the cage saturated with stimulus (Aedes aegypti [1]; 0.17 µg/L air, without substance 56.0±3.6): 4.0; number of mosquitoes landing within 2 minutes on the warm body, air in the cage saturated with stimulus (Aedes aegypti [1]; 1.7 µg/L air, without substance 56.0±3.6): 4.0; number of mosquitoes landing within 2 minutes on the warm body, air in the cage saturated with stimulus (Aedes aegypti [1]; 17 µg/L air, without substance 56.0±3.6): 1.0; repulsion (Aedes aegypti [1]; at all five tested concentrations): more than 80%; landings in 2 minutes (Aedes aegypti [1]; dose of 0.17 µg/L of air): less than five; number of mosquitoes landing within 2 minutes on the warm body (Aedes aegypti [3]; 0.04% in ethanol, ethanol control 67.1±9.1 landings): 34.0; number of mosquitoes landing within 2 minutes on the warm body (Aedes aegypti [3]; 1% in ethanol, ethanol control 67.1±9.1 landings): 9.0; number of mosquitoes landing within 2 minutes on the warm body (Aedes aegypti [3]; […] in ethanol, ethanol control 67.1±9.1 landings): 70.0
O=c1ccc2ccccc2o1 [chromen-2-one]	36.0	3.0	10.0	1.0	0.0	27%	71%	80%	0.0	1.0	118.0	tick response compared with the benchmark IR3535 (Ixodes ricinus; concentrations tested): response similar to the benchmark IR3535
